Experimental data from patent US4629683A, “Processing silver halide photographic material with blocked agent and hydroxylamine” (Fuji Photo Film Co., Ltd., priority 1983, dated 1986).

Experiments:
[1] = Acceleration effect of hydroxylamine upon release of antifoggant from precursor (HPLC, half-life); assay type: physicochemical; set-up: key to Acceleration Effect: ratio of half-life without hydroxylamine to half-life with it; settings: for t1/2 Hydroxylamine Absent / t1/2 Hydroxylamine Present: release of antifoggant; for change in releasing speed due to addition of hydroxylamine: in words, pH 10.0 and 11.0
Description: Measurement of Acceleration Effect of Hydroxylamine upon Release of Antifoggant from Precursor Thereof
(§1) The resulting solution was added to a mixture of 16 ml of acetonitrile and 20 ml of Britton-Robinson buffer solution (Britton-Robinson buffer solution can be prepared by mixing phosphoric acid, boric acid, acetic acid and sodium hydroxide, and of which pH can be adjusted within a pH range of 1.81 to 11.98), and allowed to react (wherein the pH of the solution was controlled by the buffer solution). After a definite time, acetic acid was added to lower the pH of the reaction mixture to 6.25 and thereby the reaction stopped. The antifoggant released was determined using high-speed liquid chromatography and therefrom the rate constant of the pseudo first-order reaction and, further, the half-life t1/2 were evaluated.
(§2) The acceleration effect of hydroxylamine was determined by comparison of the half-life value in the hydroxylamine present present case and that in the hydroxylamine-absent case and, further, compared with effects of known precursors of the kind which release antifoggants without ring-cleavage (Comparison Precursor (A-1) and Comparison Precursor (A-2)).

[2] = Acceleration effect of hydroxylamine upon release of pyrazolidones from precursors (half-life); assay type: physicochemical; settings: for Acceleration Effect: pH 10.0, half-life hydroxylamine absent vs present; for t1/2 Hydroxylamine Absent / t1/2 Hydroxylamine Present: release of pyrazolidones; for t1/2 Hydroxylamine Absent: pH 10.0, hydroxylamine absent; for t1/2 Hydroxylamine Present: pH 10.0, hydroxylamine present
Description: as §1, §2
Measurement of Acceleration Effect on Hydroxylamine upon Release of Pyrazolidones from Precursors Thereof
The acceleration effects of hydroxylamine upon release of pyrazolidones were determined in the same way as in Example 1, and the results obtained are shown in Table 2 below.

[3] = pH 10.0, half-life hydroxylamine absent vs present
[4] = pH 11.0, half-life hydroxylamine absent vs present
[5] = pH 10.0, hydroxylamine present (3.8×10^-4 mole)
[6] = pH 11.0, hydroxylamine present (3.8×10^-4 mole)

Structure (SMILES)	Acceleration Effect [1, 3]	Acceleration Effect [1, 4]	t1/2 Hydroxylamine Absent ([1]; pH 10.0, hydroxylamine absent)	t1/2 Hydroxylamine Present [1, 5]	t1/2 Hydroxylamine Absent ([1]; pH 11.0, hydroxylamine absent)	t1/2 Hydroxylamine Present [1, 6]	Acceleration Effect [2]	t1/2 Hydroxylamine Absent [2]	t1/2 Hydroxylamine Present [2]	change in releasing speed due to addition of hydroxylamine [1]
O=C1c2ccc([N+](=O)[O-])cc2C(=O)N1CSc1nnnn1-c1ccccc1 [(I)-(10)]	8.1	3.0	320 s	38 s	37 s	12 s	–	–	–	–
O=C1c2ccccc2S(=O)(=O)N1CSc1nnnn1-c1ccccc1 [(I)-(15)]	37	16	3,700 sec	100 s	470 s	29 s	–	–	–	–
CNC(=O)Nc1cccc(-n2nnnc2SCN2C(=O)c3ccccc3S2(=O)=O)c1 [(I)-(16)]	35	18	4,100 sec	120 s	490 s	27 s	–	–	–	–
CC1(C)CN(c2ccccc2)N(CN2C(=O)c3ccccc3S2(=O)=O)C1=O [(I)-(19)]	–	–	–	–	–	–	19	7,200 sec	370 s	–
O=C1CCC(=O)N1CSc1nnnn1-c1ccccc1 [(II)-(1)]	5.2	2.5	5,700 sec	1,200 sec	650 s	260 s	–	–	–	–
O=C1OC(Sc2nnnn2-c2ccccc2)c2ccccc21 (centres unmarked) [(III)-(1)]	29	30	27,000 sec	960 s	3,300 sec	110 s	–	–	–	–
O=C1OC(N2C(=O)CCN2c2ccccc2)c2ccc([N+](=O)[O-])cc21 (centres unmarked) [(III)-(7)]	–	–	–	–	–	–	29	13,000 sec	450 s	–
O=C1OC(Sc2nnnn2-c2ccccc2)(c2ccccc2)c2ccc([N+](=O)[O-])cc21 (centres unmarked) [(III)-(14)]	27	25	9,000 sec	340 s	980 s	39 s	–	–	–	–
CN1C(=O)c2cccc(N(C)C(=O)Sc3nnnn3-c3ccccc3)c2C1=O [(IV)-(2)]	5.0	4.1	3,500 sec	700 s	420 s	100 s	–	–	–	–
CN1C(=O)c2cccc(N(C)C(=O)OC3=NN(c4ccccc4)CC3(C)CO)c2C1=O (centres unmarked) [(IV)-(5)]	–	–	–	–	–	–	6.3	5,600 sec	880 s	–
CN(C(=O)Sc1nnnn1-c1ccccc1)c1cccc2c1COC2=O [(V)-(1)]	25	27	53,000 sec	2,100 sec	6,200 sec	230 s	–	–	–	–
O=C1CC(Sc2nnnn2-c2ccccc2)C(=O)N1c1ccccc1 (centres unmarked) [Comparison Precursor (A-1), reference compound]	0.61	0.82	2,600 sec	4,200 sec	310 s	380 s	–	–	–	reduced the releasing speed rather than accelering it, or hardly showed any appreciable change in the releasing speed
CC(CC#N)Sc1nnnn1-c1ccccc1 (centres unmarked) [Comparison Precursor (A-2), reference compound]	1.1	1.1	25,000 sec	23,000 sec	2,900 sec	2,700 sec	–	–	–	reduced the releasing speed rather than accelering it, or hardly showed any appreciable change in the releasing speed
O=C1c2ccccc2C(=O)N1CN1C(=O)CCN1c1ccccc1 [Compound (I)-(13), 1-phenyl-2-(N-phthalimidomethyl)-3-pyrazolidinone]	–	–	–	–	–	–	3.6	9,400 sec	2,600 sec	–
O=C1c2ccccc2C(=O)N1COC1=NN(c2ccccc2)CC1 [Compound (I)-(14), 1-phenyl-3-(N-phthalimidomethyloxy)-2-pyrazoline]	–	–	–	–	–	–	8.2	3,200 sec	390 s	–
O=C1CCN(c2ccccc2)N1CN1C(=O)c2ccccc2S1(=O)=O [Compound (I)-(18), N-(1-phenyl-3-pyrazolidinone-2-ylmethyl)saccharin]	–	–	–	–	–	–	21	9,300 sec	440 s	–
